Publication PMC8282797, “Strictly regulated agonist-dependent activation of AMPA-R is the key characteristic of TAK-653 for robust synaptic responses and cognitive improvement” (Scientific Reports, 2021)

Experiments:
[1] = test system: MK-801-induced working memory deficit in rats; test: Radial arm maze (RAM) test, MK-801-induced working memory deficit; type: in vivo, rat; settings: for RAM (effective doses): summary
Description: RAM tests were performed using 9-week-old male Long-Evans rats as previously described with a minor modification. Each arm was 50 cm long, 10 cm wide and 40 cm high, and the maze was elevated 50 cm above the floor. Long-Evans rats were food-restricted to 85% of free-feeding body weight throughout the experimental period. Rats were well trained to collect pellets placed on the edge of each arm. The learning criterion for the testing session was defined as 2 errors or fewer for 2 consecutive days. In the testing session, each rat was placed on the maze facing the fixed arm at the start of the trial. The entry of rats into each arm was recorded in sequence until all pellets in the 8 arms were consumed, or 5 min had elapsed. […] Thirty min after dosing of vehicle or MK-801, rats were placed on the maze. Details are described in the Supplementary Information.
The experiment was performed using 9-week-old male Long-Evans rats as described previously (Zajaczkowski et al., 1996) with a minor modification. Each arm was 50 cm long, 10 cm wide and 40 cm high, and the maze was elevated 50 cm above the floor. After being fasted for 24 h, male Long-Evans rats were food-restricted to 85% of free-feeding body weight on the first day of exposure to the maze and throughout the experimental period. The experiment consists of two sessions, training and testing session. In the training session, rats were habituated to the maze and then trained. Reinforcement consisted of 3 food pellets (45 mg each) in the food cup was used. On the first day of habituation to the maze, reinforcements were placed near the entrance and at the mid-point of each arm. Three rats were placed on the maze at one time and allowed to explore and consume the pellets for 8 min. On the second day of habituation, each rat was placed on the maze and allowed 5 min to consume the pellets placed at the mid-point and in the food cup at the end of each arm. From the third day, reinforcement was placed in the food cup at the end of each arm. Rats were well trained to collect pellets placed on the edge of each arm. The learning criterion for the testing session was defined as 2 errors or less for two consecutive days. In the previous day of the testing session, baseline level of performance was qualified to confirm that rats completed collecting all pellets placed in the 8 arms with two errors or less. In the testing session, each rat was placed on the maze facing away from the experimenter and facing the fixed arm at the start of the trial. The entry of rats into each arm was recorded in sequence. Rats were allowed to explore until all pellets in the 8 arms were consumed, or 5 min had elapsed. Entry into an arm previously chosen was counted as an error. […] […] Thirty min after dosing of vehicle or MK-801, rats were placed on the maze. Data were indicated as the mean ± SEM in the testing session.

[2] = test system: AMPA-R; test: Ca2+ influx assay using rat primary hippocampal neurons; type: cell-based; design: key to Single effect on Ca2+ level: -: No effect or slight effect; +: Potent; ++: Very potent; settings: for Single effect on Ca2+ level: summary grade
Description: Ca^2+ influx assay using primary neurons was performed as previously described. After 5 days of culture, the cells plated on poly-D-lysine coated 96-well plates (Corning Incorporated) at 2 × 10^4 or 5 × 10^4 cells/well were used for experiments with PF-04958242 or TAK-653, respectively. Fluorescent calcium indicator dye solution (Calcium4 assay Kit, Dojindo, Kumamoto, Japan) in Ca^2+ reaction buffer (DMEM, HEPES and BSA) containing Probenecid (Dojindo) was added and incubated for 60 min in 5% CO2 at 37 °C. After washing once, the relative increases in intracellular Ca^2+ levels stimulated by compounds in the presence and absence of AMPA were monitored. Details are described in the Supplementary Information.
Primary cultures of hippocampal neuronal cells were prepared from fetal Sprague-Dawley rats at 19 days of gestation. Rat embryos were decapitated and their whole brains were isolated. Hippocampi were dissected in ice-cold Hanks' Balanced Salt Solutions (HBSS) under a microscope and then dispersed into cells using a neural cell dispersion kit (Sumitomo Bakelite Co., Ltd., Tokyo, Japan). The dissociated cells were suspended in Neurobasal medium containing B27 supplement (Thermo Fisher Scientific Inc.), 2 mM L-glutamine (Lonza, Basel, Switzerland), 100 U/mL penicillin (Lonza), 100 μg/mL streptomycin (Lonza) and 20 μg/mL gentamicin sulfate (Lonza). The cells were plated on poly-D-lysine coated 96-well plates (Corning Incorporated) for Ca^2+ influx assay or on poly-L-lysine coated 96-well plates (Sumitomo Bakelite) for measurement of BDNF protein levels and cultured in a humidified CO2 incubator with 5% CO2 at 37°C.
After 5 days of culture, the cells at 2×10^4 or 5×10^4 cells/well were used for experiments with PF-04958242 or TAK-653, respectively. For TAK-653, after removal of culture medium, 75 µL of fluorescent calcium indicator dye solution (Calcium4 assay Kit, Dojindo, Kumamoto, Japan) in Ca^2+ reaction buffer (DMEM, 10 mM HEPES and 0.1% BSA) containing 1.25 mM Probenecid (Dojindo) was added and incubated for 60 min in 5% CO2 at 37°C and washed once using 75 µL of fluorescent calcium indicator dye solution. After addition of 75 µL of fluorescent calcium indicator dye solution to each well again, the relative increases in intracellular Ca^2+ levels by compounds in the presence and absence of 5 μM AMPA were monitored for 8.5 min by fluorometric imaging plate reader. Activity of the compound was defined as fluorescence intensity integrated over the entire period of measurement. Intensity of 0% was defined as activity in the presence of only DMSO, while 100% was defined as activity in the presence of 5 μM AMPA and 10 μM HBT1. For PF-04958242, after removal of culture medium, 90 µL of fluorescent calcium indicator dye solution (Calcium4 assay Kit, Dojindo) in Ca^2+ reaction buffer (DMEM, 20 mM HEPES and 0.1% BSA) containing 2.5 mM Probenecid (Dojindo) was added and incubated for 60 min in 5% CO2 at 37°C. After addition of 90 µL of fluorescent calcium indicator dye solution to each well again, the relative increases in intracellular Ca^2+ levels by compounds in the presence and absence of 1 μM AMPA were monitored for 2 min in a microplate reader (CellLux, PerkinElmer, Waltham, MA, USA). Activity of the compound was defined as fluorescence intensity integrated over the entire period of measurement. 100% was defined as activity in the presence of 1 μM AMPA and 10 μM HBT1, while intensity of 0% was defined as activity in the presence of 1 μM AMPA or only DMSO for potentiator effect or agonistic effect, respectively. EC50 values were calculated by logistic regression analysis.

`Cc1onc(O)c1CC(N)C(=O)O` (stereo not drawn) [AMPA, alpha-amino-3-hydroxy-5-methyl-4-isoxazole-propionic acid] was tested, and the “Working memory in the RAM test” value ([1]; 0.1 to 3 mg/kg, i.p., MK-801 0.08 mg/kg, s.c.) was “neither LY451646 at 0.03 to 1 mg/kg, p.o. nor AMPA at 0.1 to 3 mg/kg, i.p. improve”, the “RAM (effective doses)” value [1] was “No effect” and the “Intracellular Ca2+ levels” value ([2]; single application) was “dose-dependently increased”. For the same compound, the “Single effect on Ca2+ level” value [2] was “+”.

With `CC1=CN2CCS(=O)(=O)N=C2C(c2ccc(OC3CCCCC3)cc2)=N1` [TAK-653, 9-[4-(Cyclohexyloxy)phenyl]-7-methyl-3,4-dihydropyrazino[2,1-c][1,2,4]thiadiazine 2,2-dioxide] the “MK-801-induced deficits in RAM task” value ([1]; 0.1, 0.3, 3 and 10 mg/kg, p.o., MK-801 0.08 mg/kg, s.c.) was “significantly ameliorated”, the “RAM (effective doses)” value [1] was “Effective (0.1, 0.3, 3, 10)” and the “Intracellular Ca2+ level, Agonistic effect @30 μM” value ([2]; absence of AMPA, % of 5 μM AMPA + 10 μM HBT1 response) was 4.8%. The EC50 ([2]; in the presence of 5 μM AMPA, read-out: Intracellular Ca2+ level, Potentiation EC50) was 930 nM and the “Single effect on Ca2+ level” value [2] was “─”.
